Drawing on US9375005B2, “5-halogenopyrazole indanyl carboxamides” (BAYER CROPSCIENCE AG, priority 2012, dated 2016), this text covers Eff. %, logP and chromatographic logP for 19 compounds.

In one series the test system is Puccinia recondita. Briefly: In vivo preventive test on Puccinia recondita (brown rust on wheat). Particulars: wheat plants sprayed 24 h before contamination, grading 12 days after contamination. Here is the method: Plants, used as controls, are treated with the mixture of acetone/tween/DMSO/water not containing the active material. After 24 hours, the plants are contaminated by spraying the leaves with an aqueous suspension of Puccinia recondita spores (100 000 spores per ml). […] Grading (% of efficacy) is carried out 12 days after the contamination, in comparison with the control plants.

A further series relates to Alternaria brassicae. Briefly: In vivo preventive test on Alternaria brassicae (leaf spot on radish). Particulars: radish plants sprayed 24 h before contamination, grading 6 days after contamination vs control plants. How it is done:
Radish plants (“Pernod Clair” variety), sown in starter cups on a 50/50 peat soil-pozzolana substrate and grown at 17° C., are treated at the cotyledon stage by spraying with the active ingredient prepared as described above. Plants, used as controls, are treated with the mixture of acetone/tween/DMSO/water not containing the active material. After 24 hours, the plants are contaminated by spraying the cotyledons with an aqueous suspension of Alternaria brassicae spores (50 000 spores per ml). The spores are collected from a 15-day-old culture. […] Grading (% of efficacy) is carried out 6 days after the contamination, in comparison with the control plants.

The subject of another series is Septoria tritici. Briefly: In vivo preventive test on Septoria tritici (leaf spot on wheat). The note with it: dose 500 ppm; wheat plants sprayed 24 h before contamination; grading 24 days after contamination. How it is done: Wheat plants (“Scipion” variety), sown in starter cups on a 50/50 peat soil-pozzolana substrate and grown at 22° C., are treated at the 1-leaf stage (10 cm height) by spraying with the active ingredient prepared as described above. Plants, used as controls, are treated with the mixture of acetone/tween/DMSO/water not containing the active material. After 24 hours, the plants are contaminated by spraying the leaves with an aqueous suspension of cryopreserved Septoria tritici spores (500 000 spores per ml). […] Grading (% of efficacy) is carried out 24 days after the contamination, in comparison with the control plants.

In the next series the test system is Uromyces appendiculatus. The series can be described thus: In vivo preventive test on Uromyces appendiculatus (bean rust). The note with it: bean plants sprayed 24 h before contamination, grading 11 days after contamination. Put shortly: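 Saxa bean plants grown at 24° C were sprayed at the 2-leaf stage (9 cm) with compound in acetone/tween/DMSO/water; controls got solvent mix only. Leaves inoculated 24 h later with U. appendiculatus spores (150 000 spores/ml). Efficacy (%) graded 11 days post-inoculation versus controls.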

Series [1] is described as follows: Measurement of log P values by HPLC on reversed phase columns (EEC directive 79/831 Annex V.A8). Type of series: physicochemical.
The test system of a further series is Sphaerotheca fuliginea. Briefly: In vivo preventive test on Sphaerotheca fuliginea (powdery mildew on cucurbits). The note with it: dose 500 ppm; gherkin plants sprayed 24 h before contamination; grading 12 days after contamination. How it is done:
Gherkin plants (“Vert petit de Paris” variety), sown in starter cups on a 50/50 peat soil-pozzolana substrate and grown at 24° C., are treated at the Z11 cotyledon stage by spraying with the active ingredient prepared as described above. Plants, used as controls, are treated with the mixture of acetone/tween/DMSO/water not containing the active material. After 24 hours, the plants are contaminated by spraying the cotyledons with an aqueous suspension of Sphaerotheca fuliginea spores (100 000 spores per ml). The spores are collected from infected plants. The contaminated to gherkin plants are incubated at about 20° C. and at 70-80% relative humidity. Grading (% of efficacy) is carried out 12 days after the contamination, in comparison with the control plants.

A further series relates to Botrytis cinerea. Briefly: In vivo preventive test on Botrytis cinerea (grey mould). The note with it: gherkin plants sprayed 24 h before contamination, grading 4 to 5 days after contamination. How it is done: Gherkin plants (“Vert petit de Paris” variety), sown in starter cups on a 50/50 peat soil-pozzolana substrate and grown at 24° C., are treated at the Z11 cotyledon stage by spraying with the active ingredient prepared as described above. Plants, used as controls, are treated with the mixture of acetone/tween/DMSO/water not containing the active material. After 24 hours, the plants are contaminated by spraying the cotyledons with an aqueous suspension of cryopreserved Botrytis cinerea spores (50 000 spores per ml). The spores are suspended in a nutrient solution composed of 10 g/L of PDB, 50 g/L of D-Fructose, 2 g/L of NH4NO3 and 1 g/L of KH2PO4. […] Grading (% of efficacy) is carried out 4 to 5 days after the contamination, in comparison with the control plants.

The next series deals with Pyrenophora teres. The series can be described thus: In vivo preventive test on Pyrenophora teres (net blotch on barley). Particulars: barley plants sprayed 24 h before contamination, grading 14 days after contamination. How it is done: Barley plants (“Plaisant” variety), sown in starter cups on a 50/50 peat soil-pozzolana substrate and grown at 22° C., are treated at the 1-leaf stage (10 cm height) by spraying with the active ingredient prepared as described above. Plants, used as controls, are treated with the mixture of acetone/tween/DMSO/water not containing the active material. After 24 hours, the plants are contaminated by spraying the leaves with an aqueous suspension of Pyrenophora teres spores (12 000 spores per ml). The spores are collected from a 12-day-old culture. […] Grading (% of efficacy) is carried out 14 days after the contamination, in comparison with the control plants.

Take `CC(C)C1Cc2c(NC(=O)c3c(C(F)F)nn(C)c3F)cccc2C1(C)C` (stereo not shown) [Example 5]: the Eff. % with Puccinia recondita (dose 500 ppm) was found to be 100%; in the series with Alternaria brassicae (dose 500 ppm), 100%; in the series with Septoria tritici it was 93%; with Uromyces appendiculatus (dose 500 ppm), 100%; in the series on Sphaerotheca fuliginea it was 100%. Also, the logP in series [1] (method marked [a]) was 4.69[a].
In the case of `Cn1nc(C(F)F)c(C(=O)Nc2cccc3c2CCC32CC2)c1F` [Example 11], the Eff. % is given as 98% in the series on Puccinia recondita (dose 500 ppm); 98% with Botrytis cinerea (dose 500 ppm); 92% in the series with Alternaria brassicae (dose 500 ppm); 100% in the series on Uromyces appendiculatus (dose 500 ppm); 80% in the series with Pyrenophora teres (dose 500 ppm). Besides, the logP in series [1] (method marked [a]) is 3.33[a].
With `CC1CC(C)(C)c2c(C3CC3)ccc(NC(=O)c3c(C(F)F)nn(C)c3F)c21` (stereo not shown) [Example 17], the Eff. % worked out at 94% with Puccinia recondita (dose 500 ppm), 98% with Botrytis cinerea (dose 500 ppm), 97% with Uromyces appendiculatus (dose 500 ppm) and 97% with Pyrenophora teres (dose 500 ppm). Further, the logP in series [1] (method marked [a]) was 4.35[a];; in series [1] (method marked [b]), 4.28[b].
With `CC1c2cccc(NC(=O)c3c(C(F)F)nn(C)c3F)c2CC12CCCC2` (stereo not shown) [Example 32], the Eff. % is on record as 100% in the series on Puccinia recondita (dose 500 ppm); 93% with Alternaria brassicae (dose 500 ppm); 90% in the series with Septoria tritici; 100% with Uromyces appendiculatus (dose 500 ppm); 97% with Pyrenophora teres (dose 500 ppm); 98% in the series with Sphaerotheca fuliginea. The logP in series [1] (method marked [a]) is 4.39[a].
On to `CC1c2cccc(NC(=O)c3c(C(F)F)nn(C)c3Cl)c2CC12CCCC2` (stereo not shown) [Example 33, 5-chloro-3-(difluoromethyl)-1-methyl-N-(1′-methyl-1′,3′-dihydrospiro[cyclopentane-1,2′-inden]-4′-yl)-1H-pyrazole-4-carboxamide], for which the Eff. % was 93% with Puccinia recondita (dose 500 ppm); 86% in the series with Alternaria brassicae (dose 500 ppm); 90% in the series on Septoria tritici; 100% with Uromyces appendiculatus (dose 500 ppm); 95% in the series on Sphaerotheca fuliginea. The chromatographic logP in series [1] (pH 2.7) was 4.63.
With `CC1CC(C(C)C)c2cccc(NC(=O)c3c(C(F)F)nn(C)c3F)c21` (stereo not shown) [Example 34], the Eff. % in the series on Puccinia recondita (dose 500 ppm) is on record as 97%; with Alternaria brassicae (dose 500 ppm) it was 93%; in the series on Septoria tritici, 85%; with Uromyces appendiculatus (dose 500 ppm) it was 100%; with Pyrenophora teres (dose 500 ppm), 97%; with Sphaerotheca fuliginea, 95%. In addition, the logP in series [1] (method marked [a]) is 4.19[a].
Turning to `CC1CC(C(C)C)c2cccc(NC(=O)c3c(C(F)F)nn(C)c3Cl)c21` (stereo not shown) [Example 35], the Eff. % is recorded as 97% with Puccinia recondita (dose 500 ppm), 79% in the series with Alternaria brassicae (dose 500 ppm), 80% with Septoria tritici and 100% in the series on Uromyces appendiculatus (dose 500 ppm). In series [1] (method marked [a]), the logP was 4.46[a].
`CC1CC(CC(C)(C)C)c2cccc(NC(=O)c3c(C(F)F)nn(C)c3F)c21` (stereo not shown) [Example 70]: the Eff. % with Puccinia recondita (dose 500 ppm) turned out to be 98%; in the series with Alternaria brassicae (dose 500 ppm) it was 89%; with Septoria tritici, 79%; with Uromyces appendiculatus (dose 500 ppm) it was 100%; in the series on Sphaerotheca fuliginea, 100%. In addition, in series [1] (method marked [a]), the logP is 4.92[a].
As for `Cn1nc(C(F)F)c(C(=O)Nc2cccc3c2CC(C)(C)C3)c1F` [Example 72], the Eff. % with Puccinia recondita (dose 500 ppm) stood at 98%; in the series on Septoria tritici it was 71%; in the series with Uromyces appendiculatus (dose 500 ppm) it was 100%; with Sphaerotheca fuliginea, 100%. In series [1] (method marked [a]), the logP was 3.64[a].
As for `Cn1nc(C(F)F)c(C(=O)Nc2cccc3c2CC(C)(C)C3)c1Cl` [Example 73], the Eff. % with Puccinia recondita (dose 500 ppm) was determined as 100%; in the series on Alternaria brassicae (dose 500 ppm), 83%; in the series on Septoria tritici, 71%; in the series with Uromyces appendiculatus (dose 500 ppm), 100%; in the series on Sphaerotheca fuliginea, 100%. In series [1] (method marked [a]), the logP is 3.21[a].
In the case of `Cn1nc(C(F)F)c(C(=S)Nc2cccc3c2CCC3C(C)(C)C)c1F` (stereo not shown) [Example 75], the Eff. % in the series with Puccinia recondita (dose 500 ppm) stood at 100%; in the series with Septoria tritici, 79%; with Uromyces appendiculatus (dose 500 ppm), 100%; with Sphaerotheca fuliginea it was 100%. Moreover, in series [1] (method marked [a]), the logP was 4.51[a].
Turning to `CC(C)CC1CC(C)c2c(NC(=O)c3c(C(F)F)nn(C)c3F)cccc21` (stereo not shown) [Example 80], the Eff. % with Puccinia recondita (dose 500 ppm) amounted to 98%; in the series with Alternaria brassicae (dose 500 ppm), 97%; in the series on Septoria tritici, 86%; in the series with Uromyces appendiculatus (dose 500 ppm) it was 100%; with Pyrenophora teres (dose 500 ppm) it was 97%; with Sphaerotheca fuliginea, 98%. Also, in series [1] (method marked [a]), the logP is 4.71[a].
For `CCC1Cc2c(NC(=O)c3c(C(F)F)nn(C)c3F)cccc2C1(C)C` (stereo not shown) [Example 86], the Eff. % worked out at 100% in the series with Puccinia recondita (dose 500 ppm); 96% with Alternaria brassicae (dose 500 ppm); 93% with Septoria tritici; 100% in the series with Uromyces appendiculatus (dose 500 ppm); 92% in the series on Pyrenophora teres (dose 500 ppm). Further, the logP in series [1] (method marked [a]) was 4.34[a].
As for `CCC1Cc2c(NC(=O)c3c(C(F)F)nn(C)c3Cl)cccc2C1(C)C` (stereo not shown) [Example 90], the Eff. % is 100% in the series on Puccinia recondita (dose 500 ppm); 90% with Alternaria brassicae (dose 500 ppm); 79% with Septoria tritici; 100% in the series on Uromyces appendiculatus (dose 500 ppm); 75% in the series with Pyrenophora teres (dose 500 ppm); 100% in the series on Sphaerotheca fuliginea. For the same compound, the logP in series [1] (method marked [a]) was 4.61[a].
Regarding `CCC1(CC)Cc2c(NC(=O)c3c(C(F)F)nn(C)c3Cl)cccc2C1C` (stereo not shown) [Example 93], the Eff. % with Puccinia recondita (dose 500 ppm) is 98%; in the series with Septoria tritici, 75%; in the series with Uromyces appendiculatus (dose 500 ppm), 100%; in the series with Sphaerotheca fuliginea it was 98%. Moreover, in series [1] (method marked [a]), the logP is 4.92[a].
In the case of `Cn1nc(C(F)F)c(C(=O)Nc2cccc3c2CCC3C(C)(C)C)c1F` (stereo not shown) [Example 97], the Eff. % worked out at 98% in the series on Puccinia recondita (dose 500 ppm); 79% with Septoria tritici; 100% in the series with Uromyces appendiculatus (dose 500 ppm); 83% in the series with Pyrenophora teres (dose 500 ppm); 89% in the series on Sphaerotheca fuliginea. In series [1] (method marked [a]), the logP is 4.39[a].
Regarding `CCC1(CC)Cc2c(NC(=O)c3c(C(F)F)nn(C)c3F)cccc2C1C` (stereo not shown) [Example 101], the Eff. % in the series on Puccinia recondita (dose 500 ppm) is recorded as 98%; in the series with Alternaria brassicae (dose 500 ppm), 100%; in the series with Septoria tritici it was 88%; in the series with Uromyces appendiculatus (dose 500 ppm), 100%; in the series on Sphaerotheca fuliginea, 100%. Besides, the logP in series [1] (method marked [a]) is 4.67[a].
As to `CC1CC2(CCCC2)c2cccc(NC(=O)c3c(C(F)F)nn(C)c3F)c21` (stereo not shown) [Example 103], the Eff. % in the series with Puccinia recondita (dose 100 ppm) is listed as 98%; with Botrytis cinerea (dose 100 ppm), 100%; with Uromyces appendiculatus (dose 100 ppm) it was 100%; in the series with Pyrenophora teres (dose 100 ppm), 80%. Further, in series [1] (method marked [a]), the logP is 4.39[a].
Take `CC1CC2(CCCCC2)c2cccc(NC(=O)c3c(C(F)F)nn(C)c3F)c21` (stereo not shown) [Example 107]: the Eff. % with Puccinia recondita (dose 100 ppm) worked out at 100%; with Botrytis cinerea (dose 100 ppm), 100%; in the series on Alternaria brassicae (dose 100 ppm), 97%; in the series with Uromyces appendiculatus (dose 100 ppm) it was 100%. Further, the logP in series [1] (method marked [a]) is 4.73[a].

One may read the chromatographic logP as lipophilicity estimated from chromatographic retention.
